Patent US5679671A, “Amino acid derivative” (Eisai Co., Ltd., priority 1993, dated 1997)

Legend:
ANP-treated SHR = assay: Diuretic effect on ANP-treated SHR, i.v. (Experiment C-4); format: in vivo, Spontaneously hypertensive male rats
Description: 50 ng/kg/min of rat Atrial natriuretic peptide (r-ANP) was intravenously injected into Spontaneously hypertensive male rats (aged 14 to 16 weeks). When the hematogenic dynamics and the blood r-ANP level became stable 1 hour after the injection, the diuretic effect of each test compound was examined. The diuretic effect was determined by intravenously injecting the test compound and measuring an increase (% rate of change) in urinary accumulation within 20 minutes. As a comparative compound, [4S-[4α,7α(R*),12bβ]]-7-[(1-oxo-2(S)-thio-3-phenylpropyl)amino[-1,2,3,4,6,7,8,12b-octahydro-6-oxopyrido[2,1-a][2]benzazepine-4-carboxylic acid was used.

ACE [1] = target: T1, ACE (Rattus norvegicus, UniProt P47820); assay: ACE inhibition activity using rat lung (Experiment C-2); format: biochemical; details: Table C-1; rat lung membrane fraction, borate buffer pH 8.3
T1 construct: membrane fraction prepared from rat lung; from tissue; host or cells: rat lung, membrane fraction (method of Wu-Wong et al.)
T1 sequence (P47820 36-1313): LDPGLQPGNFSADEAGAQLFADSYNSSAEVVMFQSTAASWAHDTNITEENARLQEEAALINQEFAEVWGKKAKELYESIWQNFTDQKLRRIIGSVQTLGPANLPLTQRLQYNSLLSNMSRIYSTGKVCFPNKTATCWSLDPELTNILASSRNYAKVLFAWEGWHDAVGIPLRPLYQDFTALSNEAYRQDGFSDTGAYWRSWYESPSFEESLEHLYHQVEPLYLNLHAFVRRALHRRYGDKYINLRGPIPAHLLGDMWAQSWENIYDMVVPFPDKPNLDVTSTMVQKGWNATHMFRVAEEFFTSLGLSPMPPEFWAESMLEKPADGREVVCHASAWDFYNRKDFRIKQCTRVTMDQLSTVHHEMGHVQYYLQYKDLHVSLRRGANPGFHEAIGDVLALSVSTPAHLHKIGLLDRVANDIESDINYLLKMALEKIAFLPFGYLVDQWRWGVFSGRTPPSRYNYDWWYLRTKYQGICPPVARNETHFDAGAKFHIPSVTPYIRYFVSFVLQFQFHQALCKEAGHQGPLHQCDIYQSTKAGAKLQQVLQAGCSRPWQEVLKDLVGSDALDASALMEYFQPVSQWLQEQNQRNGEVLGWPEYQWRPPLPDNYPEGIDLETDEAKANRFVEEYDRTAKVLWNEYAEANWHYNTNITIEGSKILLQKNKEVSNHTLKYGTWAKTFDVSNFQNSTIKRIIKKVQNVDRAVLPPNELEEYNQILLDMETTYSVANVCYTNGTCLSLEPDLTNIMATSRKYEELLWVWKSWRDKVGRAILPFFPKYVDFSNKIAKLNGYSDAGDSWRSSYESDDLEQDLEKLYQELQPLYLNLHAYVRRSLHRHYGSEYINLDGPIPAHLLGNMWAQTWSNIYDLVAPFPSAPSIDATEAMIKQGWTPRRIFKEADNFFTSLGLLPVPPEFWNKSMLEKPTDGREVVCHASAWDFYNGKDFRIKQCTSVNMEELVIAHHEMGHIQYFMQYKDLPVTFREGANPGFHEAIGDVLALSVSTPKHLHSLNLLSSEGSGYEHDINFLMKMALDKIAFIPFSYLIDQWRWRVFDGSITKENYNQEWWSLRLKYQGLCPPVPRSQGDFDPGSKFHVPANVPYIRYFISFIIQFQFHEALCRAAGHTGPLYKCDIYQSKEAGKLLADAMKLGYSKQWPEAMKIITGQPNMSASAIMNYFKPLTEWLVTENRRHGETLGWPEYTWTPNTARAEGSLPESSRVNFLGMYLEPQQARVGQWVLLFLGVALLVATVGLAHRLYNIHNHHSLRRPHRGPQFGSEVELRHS
Description: The ACE inhibition activity was determined by using a membrane fraction prepared from rat lung in accordance with the method of Wu-Wong et al. (Characterization of Endthelin Converting Enzyme in Rat Lung., Junshyum R. Wu-Wong, Gerald P. Budzik, Edward M. Devine and Terry J. Opgenorth, Biochem. Biophys. Res. Commun., 1990, 171, 1291-1296.).
The ACE activity was determined with the use of a modification (modified to a borate buffer, pH 8.3) of the method of Cushman and Cheung (Spectrophotometric Assay and Properties of the Angiotensin-Converting Enzyme of Rabbit Lung., Cushman D. W. and Cheung H. S., 1971, 20, 1637-1648.).
(§1) In the presence of ACE, the hippurate liberated from hippuryl-histidyl-leucine (Hippuryl-His-Leu (PeptideInstitute Inc., Japan)) was extracted with ethyl acetate and then the absorbance was measured at a wavelength of 228 nm.
With respect to the ACE inhibition activity, the test compound was added to the reaction system as described above in such a manner as to give the final concentrations of 1, 3, 10, 30, 100, 300 and 1000 nM, an inhibition curve was prepared, and then the concentration at which 50% inhibition was achieved was taken as IC50. As a comparative compound, [4S-[4α,7α(R*),12bβ]]-7-[(1-oxo-2-(S)-thio-3-phenyl-propyl)amino]-1,2,3,4,6,7,8,12b-octahydro-6-oxopyrido-[2,1-a][2]benzazepine-4-carboxylic acid was used.

ACE [2] = target: T1, ACE; assay: ACE inhibition activity (Experiment E-1); format: biochemical; details: rat lung membrane fraction, pH 8.3
Description: As a source of the enzyme ACE, a membrane fraction prepared from rat lung in accordance with the method of Wu-Wong et al. (Characterization of Endthelin Converting Enzyme in Rat Lung., Jinshyum R. Wu-Wong, Gerald, P. Budzik, Edward M. Devine and Terry J. Opgenorth, Biochem. Biophys. Res. Commun., 1990, 171, 1291-1296.) was used. The ACE activity was determined with the use of a modification (modified to a borate buffer pH 8.3) of the method of Cushman and Cheung (Spectrophotometric Assay and Properties of the Angiotensin-Converting Enzyme of Rabbit Lung., Cushman D. W. and Cheung H. S., 1971, 20, 1637-1648.). Now the procedure will be briefly described.
as §1
To determine the NEP inhibition activity and the ACE inhibition activity, the inhibitor was added to the assay systems of both enzyme activities as described above in such a manner as to give the final concentrations of 1, 3, 10, 30, 100, […] and 1000 nM and inhibition curves were prepared. Then the concentration at which 50% inhibition was achieved was taken as IC50.

Compound	increase (% rate of change) in urinary accumulation within 20 minutes (ANP-treated SHR; 0.03 mg/kg i.v.)	increase (% rate of change) in urinary accumulation within 20 minutes (ANP-treated SHR; 0.1 mg/kg i.v.)	increase (% rate of change) in urinary accumulation within 20 minutes (ANP-treated SHR; 0.3 mg/kg i.v.)	IC50 (ACE [1])	IC50 (ACE [2])	increase (% rate of change) in urinary accumulation within 20 minutes (ANP-treated SHR; 0.01 mg/kg i.v.)
O=C(N[C@H]1Cc2ccccc2[C@H]2CCC[C@@H](C(=O)O)N2C1=O)[C@@H](S)Cc1ccccc1 [Comp. cpd. E-1, [4S-[4α,7α(R*),12bβ]]-7-[(1-oxo-2-(S)-thio-3-phenyl-propyl)amino]-1,2,3,4,6,7,8,12b-octahydro-6-oxopyrido-[2,1-a][2]benzazepine-4-carboxylic acid, reference compound]	220%	370%	360%	9 nM	9 nM	–
CC[C@H](C)[C@H](S)C(=O)NC1CCc2ccccc2N(CC(=O)O)C1=O (stereo partly drawn) [Example A-9, 1-Carboxymethyl-3-[(2S,3S)-2-mercapto-3-methylvarelylamino]-1H-[1]benzazepin-2-one]	–	–	–	13 nM	–	–
CC[C@H](C)[C@H](S)C(=O)N[C@H]1CCc2ccccc2N(CC(=O)O)C1=O [Example A-11, (S)-3-[(2S,3S)-2-Mercapto-3-methylvarelylamino]-1-carboxymethyl-2,3,4,5-tetrahydro-1H-[1]benzazepin-2-one]	390%	460%	–	11 nM	–	220%
CC[C@H](C)[C@H](S)C(=O)N[C@H]1CCC[C@H]2SC[C@@H](C(=O)O)N2C1=O [Example C-8, [3R-[3α,6α,(S*),9aβ]]-6-[[(2S,3S)-3-methyl-1-oxo-2-thiopentyl]amino]-octahydro-5-oxothiazol[3,2-a]-azepine-3-carboxylic acid]	280%	340%	–	5.3 nM	–	200%
CC[C@H](C)[C@H](S)C(=O)N[C@H]1Cc2ccc(-c3ccccc3)cc2[C@H]2CCC[C@@H](C(=O)O)N2C1=O [Example C-14, [4S-[4α,7α(R*),12bβ]]-7-[[(2S,3S)-3-Methyl-1-oxo-2-thiopentyl]amino]-6-oxo-11-phenyl-1,2,3,4,6,7,8,12b-octahydropyrido[2,1-a][2]benzazepine-4-carboxylic acid]	240%	420%	470%	12.3 nM	11 nM	–
CC(C)[C@H](S)C(=O)N[C@H]1Cc2ccc(-c3ccccc3)cc2[C@H]2CCC[C@@H](C(=O)O)N2C1=O [Example E-10, [4S-[4α,7α(R*),12bβ]]-7-[(S)-2-Mercapto-3-methylbutyrylamino]-6-oxo-11-phenyl-1,2,3,4,6,7,8,12b-octahydropyrido[2,1-a][2]benzazepine-4-carboxylic acid]	–	–	–	–	10 nM	–
